According to patent US9951065B2 (Gilead Sciences, Inc., priority 2015, dated 2018):

What follows are compounds tested against T1, IDO1 (Homo sapiens, UniProt P14902) (assay: Cell-based (HeLa) assay for measurement of IDO1 inhibition (kynurenine levels in supernatant after IFNγ induction)). Details: HeLa cells, IFNγ-induced IDO1, kynurenine in supernatant after 48 hour incubation; geometric mean of a minimum of four determinations.
T1 construct: HeLa cells were treated with a test compound in the presence of IFNγ, which induces IDO1 expression; host or cells: H1-HeLa cells, IDO1 induced with IFNγ
Summary of the method: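 IDO1 activity is read as kynurenine released into the medium, detected with Ehrlich's reagent (p-dimethylaminobenzaldehyde) at 480 nm after TCA treatment. HeLa cells were exposed 48 h to compounds in 0.5% DMSO alongside IFNγ induction. Values normalized to no-IFNγ and IFNγ controls; four-parameter EC50 given as geometric mean of ≥4 determinations.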

T1 sequence (P14902 whole entry): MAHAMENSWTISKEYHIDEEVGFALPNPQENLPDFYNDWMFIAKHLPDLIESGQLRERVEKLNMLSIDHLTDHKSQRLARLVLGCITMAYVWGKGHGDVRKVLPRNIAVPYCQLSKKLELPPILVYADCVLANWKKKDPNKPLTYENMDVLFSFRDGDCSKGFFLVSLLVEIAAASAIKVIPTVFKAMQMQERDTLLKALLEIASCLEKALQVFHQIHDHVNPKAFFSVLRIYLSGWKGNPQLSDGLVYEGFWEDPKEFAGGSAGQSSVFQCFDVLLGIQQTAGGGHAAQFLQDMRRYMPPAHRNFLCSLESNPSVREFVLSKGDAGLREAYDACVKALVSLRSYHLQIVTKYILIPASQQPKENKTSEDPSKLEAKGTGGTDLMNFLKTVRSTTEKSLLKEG

EC50 [µM] | Structure (SMILES)
1.88 | COCCCN(C)Cc1nc2nccc(/C(=N/O)Nc3ccc(F)c(Cl)c3)c2[nH]1 [Example 122, N-(3-Chloro-4-fluorophenyl)-N′-hydroxy-2-(((3-methoxypropyl)(methyl)amino)methyl)-1H-imidazo[4,5-b]pyridine-7-carboximidamide]
0.527 | O/N=C(\Nc1ccc(F)c(Cl)c1)c1cc(F)cc2nc[nH]c12 [Example 4, N-(3-Chloro-4-fluorophenyl)-5-fluoro-N′-hydroxy-1H-benzo[d]imidazole-7-carboximidamide]
0.514 | CC(CN1CCOCC1)Nc1nc2c(F)c(F)cc(/C(=N/O)Nc3ccc(F)c(Cl)c3)c2[nH]1 (centres unmarked) [Example 37, N-(3-Chloro-4-fluorophenyl)-4,5-difluoro-N′-hydroxy-2-((1-morpholinopropan-2-yl)amino)-1H-benzo[d]imidazole-7-carboximidamide]
1.06 | O/N=C(\Nc1ccc(F)c(Cl)c1)c1cc(F)c(F)c2[nH]c(CNCC3CC3)nc12 [Example 49, N-(3-Chloro-4-fluorophenyl)-2-(((cyclopropylmethyl)amino)methyl)-4,5-difluoro-N′-hydroxy-1H-benzo[d]imidazole-7-carboximidamide]
1.67 | OCc1nc2nccc(/C(=N/O)Nc3ccc(F)c(Cl)c3)c2[nH]1 [Example 177, N-(3-Chloro-4-fluorophenyl)-N′-hydroxy-2-(hydroxymethyl)-1H-imidazo[4,5-b]pyridine-7-carboximidamide]
1.48 | O/N=C(\Nc1ccc2occc2c1)c1ccnc2nc[nH]c12 [Example 70, N-(benzofuran-5-yl)-N′-hydroxy-1H-imidazo[4,5-b]pyridine-7-carboximidamide]
2.06 | COCCNCc1nc2nccc(/C(=N/O)Nc3ccc(F)c(Cl)c3)c2[nH]1 [Example 124, N-(3-Chloro-4-fluorophenyl)-N′-hydroxy-2-(((2-methoxyethyl)amino)methyl)-1H-imidazo[4,5-b]pyridine-7-carboximidamide]
1.15 | O/N=C(\Nc1ccc(F)c(Cl)c1)c1cc(F)c(F)c2nc(NCCCNc3ccccn3)[nH]c12 [Example 297, N-(3-chloro-4-fluorophenyl)-4,5-difluoro-N′-hydroxy-2-((3-(pyridin-2-ylamino)propyl)amino)-1H-benzo[d]imidazole-7-carboximidamide]
0.943 | O/N=C(\Nc1ccc(F)cc1)c1ccnc2nc[nH]c12 [Example 89, N-(4-Fluorophenyl)-N′-hydroxy-1H-imidazo[4,5-b]pyridine-7-carboximidamide]
2.23 | CC(C)NCc1nc2c(F)ccc(/C(=N/O)Nc3ccc(F)c(Cl)c3)c2[nH]1 [Example 289, N-(3-chloro-4-fluorophenyl)-4-fluoro-N′-hydroxy-2-((isopropylamino)methyl)-1H-benzo[d]imidazole-7-carboximidamide]
4.21 | O/N=C(\Nc1ccc(F)c(Cl)c1)c1ccnc2nc(-c3cccs3)[nH]c12 [Example 146, N-(3-Chloro-4-fluorophenyl)-N′-hydroxy-2-(thiophen-2-yl)-1H-imidazo[4,5-b]pyridine-7-carboximidamide]
1.22 | Cc1ccc(/C(=N/O)Nc2ccc(F)c(Cl)c2)c2[nH]cnc12 [Example 1, N-(3-Chloro-4-fluorophenyl)-N′-hydroxy-4-methyl-1H-benzo[d]imidazole-7-carboximidamide]
3.43 | O/N=C(\Nc1ccc(F)c(Cl)c1)c1ccnc2nc(CNC3CCOCC3)[nH]c12 [Example 132, N-(3-Chloro-4-fluorophenyl)-N′-hydroxy-2-(((tetrahydro-2H-pyran-4-yl)amino)methyl)-1H-imidazo[4,5-b]pyridine-7-carboximidamide]
1.54 | OCc1nc2c(F)c(F)cc(/C(=N/O)Nc3cccc(Cl)c3)c2[nH]1 [Example 29, N-(3-Chlorophenyl)-4,5-difluoro-N′-hydroxy-2-(hydroxymethyl)-1H-benzo[d]imidazole-7-carboximidamide]
0.24 | O/N=C(\Nc1ccc(F)c(Cl)c1)c1cc(F)c(F)c2nc(NCCN3CCCC3)[nH]c12 [Example 41, N-(3-Chloro-4-fluorophenyl)-4,5-difluoro-N′-hydroxy-2-((2-(pyrrolidin-1-yl)ethyl)amino)-1H-benzo[d]imidazole-7-carboximidamide]
1.11 | CNCc1nc2c(F)c(F)cc(/C(=N/O)Nc3cccc(Cl)c3)c2[nH]1 [Example 30, N-(3-Chlorophenyl)-4,5-difluoro-N′-hydroxy-2-((methylamino)methyl)-1H-benzo[d]imidazole-7-carboximidamide]
1.05 | N#Cc1cc(N/C(=N\O)c2ccnc3nc[nH]c23)ccc1F [Example 90, N-(3-Cyano-4-fluorophenyl)-N′-hydroxy-1H-imidazo[4,5-b]pyridine-7-carboximidamide]
0.453 | CC(C)OC(=O)Nc1nc2nccc(/C(=N/O)Nc3ccc(F)c(Cl)c3)c2[nH]1 [Example 159, Isopropyl (7-(N-(3-chloro-4-fluorophenyl)-N′-hydroxycarbamimidoyl)-1H-imidazo[4,5-b]pyridin-2-yl)carbamate]

Same assay, conditions: HeLa cells, IFNγ-induced IDO1, kynurenine in supernatant, 48 hour incubation; geometric mean of a minimum of four determinations

EC50 [µM] | Structure (SMILES)
7.21 | CS(=O)(=O)CCNc1nc2nccc(/C(=N/O)Nc3ccc(F)c(Cl)c3)c2[nH]1 [Example 493, N-(3-chloro-4-fluorophenyl)-N′-hydroxy-2-((2-(methylsulfonyl)ethyl)amino)-1H-imidazo[4,5-b]pyridine-7-carboximidamide]
> 10 | O=S(=O)(NCCNc1nc2c(F)c(F)cc(/C(=N/O)Nc3ccc(F)c(Cl)c3)c2[nH]1)C1CC1 [Example 336, N-(3-chloro-4-fluorophenyl)-2-((2-(cyclopropanesulfonamido)ethyl)amino)-4,5-difluoro-N′-hydroxy-1H-benzo[d]imidazole-7-carboximidamide]
0.76 | O/N=C(\Nc1ccc(F)c(Cl)c1)c1ccnc2nc(NCCN3CCC[C@H]3C(F)(F)F)[nH]c12 [Example 481, (S)-N-(3-chloro-4-fluorophenyl)-N′-hydroxy-2-((2-(2-(trifluoromethyl)pyrrolidin-1-yl)ethyl)amino)-1H-imidazo[4,5-b]pyridine-7-carboximidamide]
0.882 | O/N=C(\Nc1ccc(F)c(Cl)c1)c1cc(F)c(F)c2nc(NCCCN3CCOCC3)[nH]c12 [Example 433, N-(3-chloro-4-fluorophenyl)-4,5-difluoro-N′-hydroxy-2-((3-morpholinopropyl)amino)-1H-benzo[d]imidazole-7-carboximidamide]
1.49 | O/N=C(\Nc1ccc(F)c(Cl)c1)c1cc(F)c(F)c2nc(N[C@@H]3CCCNC3)[nH]c12 [Example 446, (R)—N-(3-chloro-4-fluorophenyl)-4,5-difluoro-N′-hydroxy-2-(piperidin-3-ylamino)-1H-benzo[d]imidazole-7-carboximidamide]
0.608 | CN(C)CCNc1nc2c(F)ccc(/C(=N/O)Nc3ccc(F)c(Br)c3)c2[nH]1 [Example 382, N-(3-bromo-4-fluorophenyl)-2-((2-(dimethylamino)ethyl)amino)-4-fluoro-N′-hydroxy-1H-benzo[d]imidazole-7-carboximidamide]
1.43 | O/N=C(\Nc1ccc(F)c(Cl)c1)c1cc(F)c(F)c2nc(N[C@H]3CCCCNC3)[nH]c12 [Example 462, (S)-2-(azepan-3-ylamino)-N-(3-chloro-4-fluorophenyl)-4,5-difluoro-N′-hydroxy-1H-benzo[d]imidazole-7-carboximidamide]
3.84 | ON=C(Nc1ccc(F)c(Cl)c1)c1cc(F)c(F)c2nc(NCc3ncc[nH]3)[nH]c12 [Example 345, 2-(((1H-imidazol-2-yl)methyl)amino)-N-(3-chloro-4-fluorophenyl)-4,5-difluoro-N′-hydroxy-1H-benzo[d]imidazole-7-carboximidamide]
0.651 | COCCN1CCCC(Nc2nc3c(F)c(F)cc(/C(=N/O)Nc4ccc(F)c(Cl)c4)c3[nH]2)C1 (centres unmarked) [Example 453, N-(3-chloro-4-fluorophenyl)-4,5-difluoro-N′-hydroxy-2-((1-(2-methoxyethyl)piperidin-3-yl)amino)-1H-benzo[d]imidazole-7-carboximidamide]
> 10 | CS(=O)(=O)NCCNc1nc2c(F)c(F)cc(/C(=N/O)Nc3ccc(F)c(Cl)c3)c2[nH]1 [Example 335, N-(3-chloro-4-fluorophenyl)-4,5-difluoro-N′-hydroxy-2-((2-(methylsulfonamido)ethyl)amino)-1H-benzo[d]imidazole-7-carboximidamide]
0.29 | CN(C)CCNc1nc2c(F)ccc(/C(=N/O)Nc3cccc(Cl)c3)c2[nH]1 [Example 384, N-(3-chlorophenyl)-2-((2-(dimethylamino)ethyl)amino)-4-fluoro-N′-hydroxy-1H-benzo[d]imidazole-7-carboximidamide]
1.33 | CN(CCc1nc2nccc(/C(=N/O)Nc3ccc(F)c(Cl)c3)c2[nH]1)CC1CCOCC1 [Example 399, N-(3-chloro-4-fluorophenyl)-N′-hydroxy-2-(2-(methyl((tetrahydro-2H-pyran-4-yl)methyl)amino)ethyl)-1H-imidazo[4,5-b]pyridine-7-carboximidamide]
7.03 | O/N=C(\Nc1ccc(F)c(Cl)c1)c1cc(F)c(F)c2nc(NCc3ncccn3)[nH]c12 [Example 350, N-(3-chloro-4-fluorophenyl)-4,5-difluoro-N′-hydroxy-2-((pyrimidin-2-ylmethyl)amino)-1H-benzo[d]imidazole-7-carboximidamide]
1.19 | CCN(CC)CCNc1nc2c(F)ccc(/C(=N/O)Nc3ccc(F)c(Cl)c3)c2[nH]1 [Example 375, N-(3-chloro-4-fluorophenyl)-2-((2-(diethylamino)ethyl)amino)-4-fluoro-N′-hydroxy-1H-benzo[d]imidazole-7-carboximidamide]
